Laboratory results as given in patent US20080015237A1 (ASTRAZENECA AB, priority 2006, published 2008).

Molecular target: human Kv1.5 channel (Homo sapiens, UniProt P22460)
Assay: Test A: Rb+ efflux assay
Type: cell-based
Details: CHO cells stably transfected with cDNA for human Kv1.5
Protocol: This assay identifies compounds that block the human Kv1.5 channel potassium channel heterologously expressed in Chinese Hamster Ovary (CHO) cells by means of Rb+ ion efflux using Flame Atomic Absorption Spectroscopy. For experimental studies, CHO cells stably transfected with cDNA for human Kv1.5 were grown as confluent layers in Falcon, 384-well tissue culture-treated black-walled clear-bottomed plates and the plates were incubated overnight at 37° C. in a cell culture incubator.
After incubating overnight the cell plates were washed and a buffer containing Rb+ ions were added to the cell plates. The plates were then incubated for another 3-4 hours in a CO2-incubator (37° C.). Following this incubation period plates were washed, compounds were added and subsequently a buffer containing elevated K+ concentrations were added in order to activate the Kv1.5 channel. Following a short incubation time, aliquots of the supernatants were transferred to supernatant plates for subsequent determination of the Rb+ content using Atomic Absorption Spectrometry (ICR8000 instrument, Aurora Biomed Inc.).

Chain of human Kv1.5 channel (P22460 whole entry): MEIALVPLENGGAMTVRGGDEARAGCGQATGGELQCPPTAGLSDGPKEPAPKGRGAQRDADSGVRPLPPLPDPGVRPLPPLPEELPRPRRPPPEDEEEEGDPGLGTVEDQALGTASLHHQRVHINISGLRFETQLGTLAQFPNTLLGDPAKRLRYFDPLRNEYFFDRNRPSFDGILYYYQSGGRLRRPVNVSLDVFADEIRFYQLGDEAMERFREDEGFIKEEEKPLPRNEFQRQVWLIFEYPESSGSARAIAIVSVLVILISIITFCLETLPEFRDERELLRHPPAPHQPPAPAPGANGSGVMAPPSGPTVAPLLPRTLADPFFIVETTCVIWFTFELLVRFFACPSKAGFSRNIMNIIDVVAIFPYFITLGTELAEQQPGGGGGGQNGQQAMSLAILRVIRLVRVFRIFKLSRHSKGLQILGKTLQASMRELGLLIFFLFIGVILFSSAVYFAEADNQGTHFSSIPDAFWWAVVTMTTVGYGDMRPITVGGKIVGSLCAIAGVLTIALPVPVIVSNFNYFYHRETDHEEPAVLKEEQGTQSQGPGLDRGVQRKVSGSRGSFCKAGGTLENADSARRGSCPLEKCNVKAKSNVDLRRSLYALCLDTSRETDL

| SMILES | IC50 [nM] |
| --- | --- |
| CC(C)(C)NC(=O)C1c2ccccc2C(=O)N1Cc1ccccc1C(F)(F)F (stereo not drawn) [N-(tert-butyl)-3-oxo-2-[2-(trifluoromethyl)benzyl]isoindoline-1-carboxamide] | 1900 |
| CC(CN1C(=O)c2cc(Cl)c(Cl)cc2C1C(=O)NC(C)(C)C)c1ccc(Cl)cc1 (stereo not drawn) [N-(tert-butyl)-5,6-dichloro-2-[2-(4-chlorophenyl)propyl]-3-oxoisoindoline-1-carboxamide] | 1800 |
| Cc1c(O)ccc2c1C(=O)N(Cc1ccccc1Oc1ccc(C(F)(F)F)cc1)C2C(=O)NC(C)(C)C (stereo not drawn) [N-(tert-butyl)-5-hydroxy-4-methyl-3-oxo-2-{2-[4-(trifluoromethyl)phenoxy]benzyl}isoindoline-1-carboxamide] | 2000 |
| CC(C)(C)NC(=O)C1c2cc(Cl)ccc2C(=O)N1C(c1ccccc1)c1ccccc1 (stereo not drawn) [N-(tert-butyl)-6-chloro-2-(diphenylmethyl)-3-oxoisoindoline-1-carboxamide] | 2800 |
| CC(CN1C(=O)c2ccc(Cl)cc2C1C(=O)NC(C)(C)C)c1ccc(Cl)cc1 (stereo not drawn) [N-(tert-butyl)-6-chloro-2-[2-(4-chlorophenyl)propyl]-3-oxoisoindoline-1-carboxamide] | 910 |
| CC(C)(C)NC(=O)C1c2cc(Cl)ccc2C(=O)N1Cc1ccccc1C(F)(F)F (stereo not drawn) [N-(tert-butyl)-6-chloro-3-oxo-2-[2-(trifluoromethyl)benzyl]isoindoline-1-carboxamide] | 1100 |
| CC(C)(C)CN1C(=O)c2ccccc2C1C(=O)NCc1cccc(OC(F)F)c1 (stereo not drawn) [N-[3-(difluoromethoxy)benzyl]-2-(2,2-dimethylpropyl)-3-oxoisoindoline-1-carboxamide] | 1300 |
| CC(C)(C)CCN1C(=O)c2ccccc2C1C(=O)NCc1cccc(OC(F)F)c1 (stereo not drawn) [N-[3-(difluoromethoxy)benzyl]-2-(3,3-dimethylbutyl)-3-oxoisoindoline-1-carboxamide] | 1800 |
| CC(c1ccccc1)N1C(=O)c2ccccc2C1C(=O)NCc1cccc(OC(F)F)c1 (stereo not drawn) [N-[3-(difluoromethoxy)benzyl]-3-oxo-2-(1-phenylethyl)isoindoline-1-carboxamide] | 2400 |
| CC(C)(CO)CN1C(=O)c2ccc(F)cc2C1C(=O)NCc1cccc(OC(F)F)c1 (stereo not drawn) [N-[3-(difluoromethoxy)benzyl]-6-fluoro-2-(3-hydroxy-2,2-dimethylpropyl)-3-oxoisoindoline-1-carboxamide] | 1400 |
| CC(C)(c1ccccc1)N1C(=O)c2ccccc2C1C(=O)NCc1ccccc1 (stereo not drawn) [N-benzyl-2-(1-methyl-1-phenylethyl)-3-oxoisoindoline-1-carboxamide] | 1700 |
| O=C(NCc1ccccc1)C1c2ccccc2C(=O)N1Cc1ccccc1Br (stereo not drawn) [N-benzyl-2-(2-bromobenzyl)-3-oxoisoindoline-1-carboxamide] | 2500 |
| O=C(NCc1ccccc1)C1c2ccccc2C(=O)N1CCC1=CCCCC1 (stereo not drawn) [N-benzyl-2-(2-cyclohex-1-en-1-ylethyl)-3-oxoisoindoline-1-carboxamide] | 1800 |
| O=C(NCc1ccccc1)C1c2ccccc2C(=O)N1Cc1ccccc1-c1ccccc1 (stereo not drawn) [N-benzyl-2-(biphenyl-2-ylmethyl)-3-oxoisoindoline-1-carboxamide] | 1000 |
| O=C(NCc1ccccc1)C1c2cc(Cl)ccc2C(=O)N1Cc1ccccc1-c1ccccc1 (stereo not drawn) [N-benzyl-2-(biphenyl-2-ylmethyl)-6-chloro-3-oxoisoindoline-1-carboxamide] | 420 |
| O=C(NCc1ccccc1)C1c2cc(F)ccc2C(=O)N1Cc1ccccc1-c1ccccc1 (stereo not drawn) [N-benzyl-2-(biphenyl-2-ylmethyl)-6-fluoro-3-oxoisoindoline-1-carboxamide] | 1000 |
| O=C(NCc1ccccc1)C1c2ccccc2C(=O)N1CCc1ccc(Cl)cc1 (stereo not drawn) [N-benzyl-2-[2-(4-chlorophenyl)ethyl]-3-oxoisoindoline-1-carboxamide] | 560 |
| CCN(Cc1ccccc1)C(=O)C1c2ccccc2C(=O)N1CCc1ccc(Cl)cc1 (stereo not drawn) [N-benzyl-2-[2-(4-chlorophenyl)ethyl]-N-ethyl-3-oxoisoindoline-1-carboxamide] | 930 |

| SMILES | IC50 [nM] |
| --- | --- |
| CN(Cc1ccccc1)C(=O)C1c2ccccc2C(=O)N1CCc1ccc(Cl)cc1 (stereo not drawn) [N-benzyl-2-[2-(4-chlorophenyl)ethyl]-N-methyl-3-oxoisoindoline-1-carboxamide] | 890 |
| CC(CN1C(=O)c2ccccc2C1C(=O)NCc1ccccc1)c1ccc(Cl)cc1 (stereo not drawn) [N-benzyl-2-[2-(4-chlorophenyl)propyl]-3-oxoisoindoline-1-carboxamide] | 510 |
| COc1ccc2c(c1OC)C(=O)N(CC(C)c1ccc(Cl)cc1)C2C(=O)NCc1ccccc1 (stereo not drawn) [N-benzyl-2-[2-(4-chlorophenyl)propyl]-4,5-dimethoxy-3-oxoisoindoline-1-carboxamide] | 610 |
| COc1cc2c(cc1OC)C(C(=O)NCc1ccccc1)N(CC(C)c1ccc(Cl)cc1)C2=O (stereo not drawn) [N-benzyl-2-[2-(4-chlorophenyl)propyl]-5,6-dimethoxy-3-oxoisoindoline-1-carboxamide] | 740 |
| COc1ccc2c(c1)C(=O)N(CC(C)c1ccc(Cl)cc1)C2C(=O)NCc1ccccc1 (stereo not drawn) [N-benzyl-2-[2-(4-chlorophenyl)propyl]-5-methoxy-3-oxoisoindoline-1-carboxamide] | 710 |
| CC(c1ccccc1)N1C(=O)c2ccccc2C1C(=O)NCc1ccccc1 (stereo not drawn) [N-benzyl-3-oxo-2-(1-phenylethyl)isoindoline-1-carboxamide] | 6000 |
| CCC(c1ccccc1)N1C(=O)c2ccccc2C1C(=O)NCc1ccccc1 (stereo not drawn) [N-benzyl-3-oxo-2-(1-phenylpropyl)isoindoline-1-carboxamide] | 400 |
| O=C(NCc1ccccc1)C1c2ccccc2C(=O)N1Cc1cc(-c2ccccc2)no1 (stereo not drawn) [N-benzyl-3-oxo-2-[(3-phenylisoxazol-5-yl)methyl]isoindoline-1-carboxamide] | 1000 |
| C[C@H](c1ccccc1)N1C(=O)c2cc(Br)ccc2C1C(=O)NCc1ccccc1 (stereo partly drawn) [N-benzyl-5-bromo-3-oxo-2-[(1R)-1-phenylethyl]isoindoline-1-carboxamide] | 2100 |
| C[C@H](c1ccccc1)N1C(=O)c2ccc(Br)cc2C1C(=O)NCc1ccccc1 (stereo partly drawn) [N-benzyl-6-bromo-3-oxo-2-[(1R)-1-phenylethyl]isoindoline-1-carboxamide] | 210 |
| CC(CN1C(=O)c2ccc(Cl)cc2C1C(=O)NCc1ccccc1)c1ccc(Cl)cc1 (stereo not drawn) [N-benzyl-6-chloro-2-[2-(4-chlorophenyl)propyl]-3-oxoisoindoline-1-carboxamide] | 150 |
| C[C@H](c1ccccc1)N1C(=O)c2ccc(Cl)cc2C1C(=O)NCc1ccccc1 (stereo partly drawn) [N-benzyl-6-chloro-3-oxo-2-[(1R)-1-phenylethyl]isoindoline-1-carboxamide] | 550 |
| C[C@@H](c1ccccc1)N1C(=O)c2ccc(Cl)cc2C1C(=O)NCc1ccccc1 (stereo partly drawn) [N-benzyl-6-chloro-3-oxo-2-[(1S)-1-phenylethyl]isoindoline-1-carboxamide] | 2200 |
| O=C(NCc1ccccc1)C1c2cc(F)ccc2C(=O)N1Cc1ccccc1C(F)(F)F (stereo not drawn) [N-benzyl-6-fluoro-3-oxo-2-[2-(trifluoromethyl)benzyl]isoindoline-1-carboxamide] | 1400 |
| C[C@H](c1ccccc1)N1C(=O)c2ccc(F)cc2C1C(=O)NCc1ccccc1 (stereo partly drawn) [N-benzyl-6-fluoro-3-oxo-2-[(1R)-1-phenylethyl]isoindoline-1-carboxamide] | 1300 |
| CCCCN(Cc1ccccc1)C(=O)C1c2ccccc2C(=O)N1CCc1ccc(Cl)cc1 (stereo not drawn) [N-benzyl-N-butyl-2-[2-(4-chlorophenyl)ethyl]-3-oxoisoindoline-1-carboxamide] | 340 |
| CCCCNC(=O)C1c2ccccc2C(=O)N1CC(C)(C)c1ccc(Cl)cc1 (stereo not drawn) [N-butyl-2-[2-(4-chlorophenyl)-2-methyl-propyl]-3-oxo-1H-isoindole-1-carboxamide] | 530 |
| CCCCNC(=O)C1c2ccccc2C(=O)N1CC(C)c1ccc(Cl)cc1 (stereo not drawn) [N-butyl-2-[2-(4-chlorophenyl)propyl]-3-oxoisoindoline-1-carboxamide] | 730 |
